Counter-ions that a name gives are not always drawn. Like-named read-outs stand apart in the source and are kept apart here.
Key:
human NTCP [1] = biological target: T1, human NTCP (Homo sapiens, UniProt Q14973); experiment: Screening taurocholate uptake assay (96-well, [14C]taurocholate, 10 µM drug)
T1 sequence (Q14973 1-349): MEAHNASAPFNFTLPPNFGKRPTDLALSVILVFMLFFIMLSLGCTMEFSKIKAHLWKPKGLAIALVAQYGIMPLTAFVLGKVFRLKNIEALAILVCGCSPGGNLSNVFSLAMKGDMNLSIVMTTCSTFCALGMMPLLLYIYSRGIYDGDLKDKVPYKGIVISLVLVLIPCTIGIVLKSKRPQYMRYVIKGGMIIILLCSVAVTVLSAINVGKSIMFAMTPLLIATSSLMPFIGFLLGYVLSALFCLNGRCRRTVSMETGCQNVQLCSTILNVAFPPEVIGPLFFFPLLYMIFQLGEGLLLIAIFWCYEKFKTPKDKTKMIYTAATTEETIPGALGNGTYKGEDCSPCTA

human NTCP [2] = biological target: T1, human NTCP; experiment: Screening fluorescent competitive Myrcludex B-FITC binding assay (96-well, 10 µM drug)
[3] = combined ranking from functional and binding screening assays
[4] = screen, 10 µM drug, taurocholate uptake
[5] = screen, 10 µM drug, Myrcludex B-FITC binding
[6] = Prestwick library screen, taurocholate uptake, 10 µM drug
[7] = ranking score beside the functional and binding assay B-scores of the screen
[8] = Prestwick library screen, Myrcludex B-FITC binding, 10 µM drug
[9] = Prestwick library screen, 10 µM drug, B-score of taurocholate uptake
[10] = combined ranking from functional and binding assay B-scores
[11] = Prestwick library screen, 10 µM drug, B-score of Myrcludex B-FITC binding

CCCCCCCCNC(C)C(O)c1ccc(SC(C)C)cc1 (stereo not drawn) [Suloctidil]
Ranking score (human NTCP [1]; [3]): 345.514
B-score functional assay (human NTCP [1]; [4]): 4.189
B-score binding assay (human NTCP [2]; [5]): -2.148

CCN1CCCC1CNC(=O)c1cc(S(N)(=O)=O)ccc1OC (stereo not drawn) [Sulpiride]
B-score functional assay (human NTCP [1]; [6]): 0.071
Ranking score (human NTCP [1]; [7]): 822.943
B-score binding assay (human NTCP [2]; [8]): 0.598

CNS(=O)(=O)Cc1ccc2[nH]cc(CCN(C)C)c2c1 [Sumatriptan succinate]
B-score functional assay (human NTCP [1]): 0.496
Ranking score (human NTCP [1]): 810.351
B-score binding assay (human NTCP [2]): 0.075

Cl.O=c1[nH]oc2c1CCNC2 [THIP Hydrochloride]
Ranking score (human NTCP [1]; [3]): 426.394
B-score functional assay (human NTCP [1]; [4]): 0.28
B-score binding assay (human NTCP [2]; [5]): -1.136

Nc1c2c(nc3ccccc13)CCCC2 [Tacrine hydrochloride]
B-score functional assay (human NTCP [1]; [6]): -0.044
Ranking score (human NTCP [1]; [7]): 757.813
B-score binding assay (human NTCP [2]; [8]): 0.755

CC/C(=C(\c1ccccc1)c1ccc(OCCN(C)C)cc1)c1ccccc1 [Tamoxifen citrate]
B-score functional assay (human NTCP [1]; [6]): 0.142
Ranking score (human NTCP [1]; [7]): 732.268
B-score binding assay (human NTCP [2]; [8]): 0.04

[H]/N=C(/NCCCCC)N/N=C/c1c[nH]c2ccc(OC)cc12 [Tegaserod maleate]
B-score functional assay (human NTCP [1]; [9]): 1.009
Ranking score (human NTCP [1]; [10]): 947.847
B-score binding assay (human NTCP [2]; [11]): 0.318

Cc1scc2c1N(C(=O)CN1CCN(C)CC1)c1ccccc1NC2=O [Telenzepine dihydrochloride]
B-score functional assay (human NTCP [1]; [9]): 0.592
Ranking score (human NTCP [1]; [10]): 1037.8
B-score binding assay (human NTCP [2]; [11]): 1.535

Cn1nnc2c(C(N)=O)ncn2c1=O [Temozolomide]
B-score functional assay (human NTCP [1]; [9]): 0.533
Ranking score (human NTCP [1]; [10]): 906.245
B-score binding assay (human NTCP [2]; [11]): 0.415

COc1ccc2[nH]c([S+]([O-])Cc3ncc(C)c(OC)c3C)nc2n1 (stereo not drawn) [Tenatoprazole]
B-score functional assay (human NTCP [1]): -1.232
Ranking score (human NTCP [1]): 199.975
B-score binding assay (human NTCP [2]): -1.326

CN(C/C=C/C#CC(C)(C)C)Cc1cccc2ccccc12 [Terbinafine]
B-score functional assay (human NTCP [1]; [6]): 3.878
Ranking score (human NTCP [1]; [7]): 842.5
B-score binding assay (human NTCP [2]; [8]): -0.07

CC(C)(C)NCC(O)c1cc(O)cc(O)c1.CC(C)(C)NCC(O)c1cc(O)cc(O)c1.O=S(=O)(O)O (stereo not drawn) [Terbutaline hemisulfate]
Ranking score (human NTCP [1]; [3]): 291.443
B-score functional assay (human NTCP [1]; [4]): 2.669
B-score binding assay (human NTCP [2]; [5]): -2.462

CCC(=O)O[C@H]1CC[C@H]2[C@@H]3CCC4=CC(=O)CC[C@]4(C)[C@H]3CC[C@]12C [Testosterone propionate]
B-score functional assay (human NTCP [1]): -0.451
Ranking score (human NTCP [1]): 567.732
B-score binding assay (human NTCP [2]): 0.252

CCCCNc1ccc(C(=O)OCCN(C)C)cc1.Cl [Tetracaïne hydrochloride]
B-score functional assay (human NTCP [1]; [9]): 0.799
Ranking score (human NTCP [1]; [10]): 1118.05
B-score binding assay (human NTCP [2]; [11]): 2.591

CN(C)[C@@H]1C(O)=C(C(N)=O)C(=O)[C@@]2(O)C(O)=C3C(=O)c4c(O)cccc4[C@@](C)(O)[C@H]3C[C@@H]12 [Tetracycline hydrochloride]
B-score functional assay (human NTCP [1]; [6]): 0.067
Ranking score (human NTCP [1]; [7]): 755.57
B-score binding assay (human NTCP [2]; [8]): 0.201

c1ccc2c(c1)CCCC2C1=NCCN1 (stereo not drawn) [Tetrahydrozoline hydrochloride]
B-score functional assay (human NTCP [1]; [9]): 0.112
Ranking score (human NTCP [1]; [10]): 952.65
B-score binding assay (human NTCP [2]; [11]): 1.943

O=C1CCC(N2C(=O)c3ccccc3C2=O)C(=O)N1 (stereo not drawn) [Thalidomide]
B-score functional assay (human NTCP [1]; [9]): 0.111
Ranking score (human NTCP [1]; [10]): 964.883
B-score binding assay (human NTCP [2]; [11]): 2.398

Cn1c(=O)c2[nH]cnc2n(C)c1=O [Theophylline monohydrate]
Ranking score (human NTCP [1]; [3]): 321.683
B-score functional assay (human NTCP [1]; [4]): -1.998
B-score binding assay (human NTCP [2]; [5]): 0.205

Cc1ncc(C[n+]2csc(CCO)c2C)c(N)n1 [Thiamine hydrochloride]
B-score functional assay (human NTCP [1]; [6]): 1.872
Ranking score (human NTCP [1]; [7]): 830.8
B-score binding assay (human NTCP [2]; [8]): -0.051

CCSc1ccc2c(c1)N(CCCN1CCN(C)CC1)c1ccccc1S2.O=C(O)CC(O)C(=O)O.O=C(O)CC(O)C(=O)O [Thiethylperazine dimalate]
B-score functional assay (human NTCP [1]; [9]): 0.623
Ranking score (human NTCP [1]; [10]): 1093.79
B-score binding assay (human NTCP [2]; [11]): 3.252

Nc1nc(=S)c2ncn([C@@H]3O[C@H](CO)[C@@H](O)[C@H]3O)c2[nH]1 [Thioguanosine]
Ranking score (human NTCP [1]; [3]): 366.332
B-score functional assay (human NTCP [1]; [4]): -0.426
B-score binding assay (human NTCP [2]; [5]): -0.655

S=C(NC1CCCCC1)N1CCC(c2cnc[nH]2)CC1 [Thioperamide maleate]
Ranking score (human NTCP [1]; [3]): 451.504
B-score functional assay (human NTCP [1]; [4]): -0.893
B-score binding assay (human NTCP [2]; [5]): 0.108
